Test results taken from ChEMBL document CHEMBL1131059, “Synthesis and biological activity of a new series of N6-arylcarbamoyl, 2-(Ar)alkynyl-N6-arylcarbamoyl, and N6-carboxamido derivatives of adenosine-5'-N-ethyluronamide as A1 and A3 adenosine receptor agonists” (J Med Chem, 1998).

Molecular target: Adenosine receptor A2a (Rattus norvegicus, UniProt P30543)
Assay: not given
Conditions: not given

Chain of Adenosine receptor A2a (P30543 whole entry): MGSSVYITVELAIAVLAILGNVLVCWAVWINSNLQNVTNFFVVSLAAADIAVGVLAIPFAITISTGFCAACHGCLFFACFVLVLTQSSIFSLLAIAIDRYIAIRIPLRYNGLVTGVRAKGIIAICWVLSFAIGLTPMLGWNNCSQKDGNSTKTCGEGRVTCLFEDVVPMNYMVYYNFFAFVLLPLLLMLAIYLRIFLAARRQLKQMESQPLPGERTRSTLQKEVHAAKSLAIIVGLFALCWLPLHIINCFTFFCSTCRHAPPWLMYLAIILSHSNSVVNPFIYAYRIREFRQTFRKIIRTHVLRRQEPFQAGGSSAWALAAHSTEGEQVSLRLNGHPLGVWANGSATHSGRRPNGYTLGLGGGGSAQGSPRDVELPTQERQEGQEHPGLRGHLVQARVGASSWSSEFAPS

Ki | Compound
2330 nM | CCCCC#Cc1nc(NC(=O)Nc2ccc(OC)cc2)c2ncn([C@@H]3O[C@H](C(=O)NCC)[C@@H](O)[C@H]3O)c2n1

Molecular target: T1, Adenosine receptor A1 (Rattus norvegicus, UniProt P25099)
T1 sequence (P25099 whole entry): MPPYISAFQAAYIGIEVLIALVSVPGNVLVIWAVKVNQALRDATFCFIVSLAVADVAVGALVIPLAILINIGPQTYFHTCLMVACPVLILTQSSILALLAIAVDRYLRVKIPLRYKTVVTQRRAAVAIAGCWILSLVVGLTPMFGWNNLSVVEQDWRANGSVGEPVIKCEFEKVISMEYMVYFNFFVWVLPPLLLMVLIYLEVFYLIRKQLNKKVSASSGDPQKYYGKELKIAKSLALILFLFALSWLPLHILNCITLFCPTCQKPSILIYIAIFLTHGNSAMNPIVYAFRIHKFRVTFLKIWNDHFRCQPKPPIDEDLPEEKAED
Assay: not given
Conditions: not given

Ki | Compound
814 nM | CCNC(=O)[C@H]1O[C@@H](n2cnc3c(NC(=O)Nc4cccc(Cl)c4)nc(C#CC(O)c4ccccc4)nc32)[C@H](O)[C@@H]1O (stereo partly drawn)
4790 nM | CCNC(=O)[C@H]1O[C@@H](n2cnc3c(NC(=O)Nc4ccc(OC)cc4)nc(C#Cc4ccccc4)nc32)[C@H](O)[C@@H]1O
75.1 nM | CCNC(=O)[C@H]1O[C@@H](n2cnc3c(NC(=O)Nc4ccc(OC)cc4)nc(C#CC(O)c4ccccc4)nc32)[C@H](O)[C@@H]1O (stereo partly drawn)
428 nM | CCCCC#Cc1nc(NC(=O)Nc2ccc(OC)cc2)c2ncn([C@@H]3O[C@H](C(=O)NCC)[C@@H](O)[C@H]3O)c2n1

Molecular target: Adenosine receptors; A1 & A3 (Rattus norvegicus) (UniProt P25099+P28647)
Assay: Selectivity for binding affinity towards A1 adenosine receptor in rat brain membrane and rat A3 receptor expressed in CHO cells.
Assay type: cell-based
Conditions: not given

Ratio | Compound
0.3 | CCNC(=O)[C@H]1O[C@@H](n2cnc3c(NC(=O)c4ccccc4)ncnc32)[C@H](O)[C@@H]1O
0.1 | CCNC(=O)[C@H]1O[C@@H](n2cnc3c(NC(=O)c4ccc(OC)cc4)ncnc32)[C@H](O)[C@@H]1O
1.7 | CCNC(=O)[C@H]1O[C@@H](n2cnc3c(NC(=O)N[C@@H](C)c4ccccc4)ncnc32)[C@H](O)[C@@H]1O
1.2 | CCNC(=O)[C@H]1O[C@@H](n2cnc3c(NC(=O)Nc4cccc(Cl)c4)nc(C#CC(O)c4ccccc4)nc32)[C@H](O)[C@@H]1O (stereo partly drawn)
47 | CCNC(=O)[C@H]1O[C@@H](n2cnc3c(NC(=O)Nc4ccc(S(N)(=O)=O)cc4)ncnc32)[C@H](O)[C@@H]1O
31 | CCNC(=O)[C@H]1O[C@@H](n2cnc3c(NC(=O)Nc4ccc(OC)cc4)nc(C#Cc4ccccc4)nc32)[C@H](O)[C@@H]1O
0.23 | CCNC(=O)[C@H]1O[C@@H](n2cnc3c(NC(=O)Nc4ccc(OC)cc4)nc(C#CC(O)c4ccccc4)nc32)[C@H](O)[C@@H]1O (stereo partly drawn)
4.5 | CCNC(=O)[C@H]1O[C@@H](n2cnc3c(NC(=O)NCc4ccccc4)ncnc32)[C@H](O)[C@@H]1O
27 | CCNC(=O)[C@H]1O[C@@H](n2cnc3c(NC(=O)N[C@H](C)c4ccccc4)ncnc32)[C@H](O)[C@@H]1O
3.5 | CCNC(=O)[C@H]1O[C@@H](n2cnc3c(NC(=O)Nc4ccc(C(C)=O)cc4)ncnc32)[C@H](O)[C@@H]1O
0.037 | CCNC(=O)[C@H]1O[C@@H](n2cnc3c(NC(=O)Nc4nncs4)ncnc32)[C@H](O)[C@@H]1O
0.006 | CCNC(=O)[C@H]1O[C@@H](n2cnc3c(NC(=O)c4ccc(-c5ccccc5)cc4)ncnc32)[C@H](O)[C@@H]1O
0.27 | CCNC(=O)[C@H]1O[C@@H](n2cnc3c(NC(=O)Nc4cc(C)on4)ncnc32)[C@H](O)[C@@H]1O
0.13 | CCNC(=O)[C@H]1O[C@@H](n2cnc3c(N(C(=O)Nc4ccc(Cl)cn4)C(=O)Nc4ccc(Cl)cn4)ncnc32)[C@H](O)[C@@H]1O
0.095 | CCNC(=O)[C@H]1O[C@@H](n2cnc3c(NC(=O)Cc4ccc(Cl)cc4Cl)ncnc32)[C@H](O)[C@@H]1O
2 | CCCCC#Cc1nc(NC(=O)Nc2ccc(OC)cc2)c2ncn([C@@H]3O[C@H](C(=O)NCC)[C@@H](O)[C@H]3O)c2n1

Molecular target: T2, Adenosine receptor A3 (Rattus norvegicus, UniProt P28647)
T2 sequence (P28647 whole entry): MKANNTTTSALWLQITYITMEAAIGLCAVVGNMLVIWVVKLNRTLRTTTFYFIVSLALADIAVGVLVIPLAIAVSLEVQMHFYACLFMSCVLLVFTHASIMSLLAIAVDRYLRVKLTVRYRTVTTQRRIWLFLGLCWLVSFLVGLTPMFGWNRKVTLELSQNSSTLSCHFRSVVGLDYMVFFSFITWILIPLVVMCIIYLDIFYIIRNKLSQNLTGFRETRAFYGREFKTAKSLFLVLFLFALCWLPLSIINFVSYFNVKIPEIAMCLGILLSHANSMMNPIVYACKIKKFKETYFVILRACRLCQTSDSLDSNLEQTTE
Assay: biochemical
Conditions: not given

Ki | Compound
696 nM | CCNC(=O)[C@H]1O[C@@H](n2cnc3c(NC(=O)Nc4cccc(Cl)c4)nc(C#CC(O)c4ccccc4)nc32)[C@H](O)[C@@H]1O (stereo partly drawn)
154 nM | CCNC(=O)[C@H]1O[C@@H](n2cnc3c(NC(=O)Nc4ccc(OC)cc4)nc(C#Cc4ccccc4)nc32)[C@H](O)[C@@H]1O
324 nM | CCNC(=O)[C@H]1O[C@@H](n2cnc3c(NC(=O)Nc4ccc(OC)cc4)nc(C#CC(O)c4ccccc4)nc32)[C@H](O)[C@@H]1O (stereo partly drawn)
211 nM | CCCCC#Cc1nc(NC(=O)Nc2ccc(OC)cc2)c2ncn([C@@H]3O[C@H](C(=O)NCC)[C@@H](O)[C@H]3O)c2n1

Molecular target: Adenosine receptor A2a (Rattus norvegicus) (UniProt P30543)
Sequence (P30543 whole entry): as the sequence (P30543 whole entry) above
Assay: Binding affinity against Adenosine A2A receptor of rat striatal membranes using [3H]- CGS 21680 at 10E-4
Conditions: concentration not given here

inhibition | Compound
12% | CCNC(=O)[C@H]1O[C@@H](n2cnc3c(NC(=O)Nc4cccc(Cl)c4)nc(C#CC(O)c4ccccc4)nc32)[C@H](O)[C@@H]1O (stereo partly drawn)
29% | CCNC(=O)[C@H]1O[C@@H](n2cnc3c(NC(=O)Nc4ccc(OC)cc4)nc(C#Cc4ccccc4)nc32)[C@H](O)[C@@H]1O
12% | CCNC(=O)[C@H]1O[C@@H](n2cnc3c(NC(=O)Nc4ccc(OC)cc4)nc(C#CC(O)c4ccccc4)nc32)[C@H](O)[C@@H]1O (stereo partly drawn)
